This is an account of results in US20190119200A1, “TERTIARY AMIDES AND METHOD OF USE” (AbbVie Inc., priority 2016, published 2019).

Structures are written as SMILES.

The subject of this experiment is LPA-induced MCP-1 in NRK-49F cells. Kind of experiment: LPA-induced MCP-1 AlphaLISA assay. As to conditions: Rattus norvegicus, final LPA 10 μM, 7 hours; for Emax: read-out: Maximum Inhibition. The class given is cell-based. Summed up:
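NRK-49F rat fibroblasts, serum-starved overnight, pretreated with compound for 30 min at 37 °C (1% DMSO final), then stimulated with 10 μM LPA final. MCP-1 in the supernatant was measured by mouse/rat CCL2 AlphaLISA. IC50 values came from four-parameter logistic fits of the ratio data.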
A general note: In Alpha technology, singlet oxygen from a donor bead excites a nearby acceptor bead.

What is called IC50 is the concentration that gives 50% inhibition. A high value points to weaker potency. Turning to `COc1cc(C(=O)N(CCCc2ccccc2)CCC[C@@H](C)C(=O)O)cc(OC)c1C` (single isomer, unassigned) [Example 77], the IC50 came to 60 nM and the Emax came to 92%.
Take `COc1cc(C(=O)N(CCCc2ccccc2)CC(=O)NC2(C(=O)O)CC2)cc(OC)c1C` [Example 3, 1-{[N-(3,5-dimethoxy-4-methylbenzoyl)-N-(3-phenylpropyl)glycyl]amino}cyclopropane-1-carboxylic Acid]: the 50% inhibitory concentration (IC50) amounted to 3120 nM and the Emax is 74%.
As for `COc1cc(C(=O)N(CCCCC(=O)O)CCCc2ccccc2)cc(OC)c1C` [Example 4, 5-[(3,5-dimethoxy-4-methylbenzoyl)(3-phenylpropyl)amino]pentanoic Acid], half-maximal inhibition (IC50) was put at 188 nM and the Emax worked out at 91%.
The like results for `COc1cc(C(=O)N(CCCc2ccccc2)CCOCC(=O)O)cc(OC)c1C` [Example 6, {2-[(3,5-dimethoxy-4-methylbenzoyl)(3-phenylpropyl)amino]ethoxy}acetic Acid] were, in that order, 723 nM and 80%.
`COc1ccc(C2(C(=O)N(CCCCC(=O)O)CCCc3ccccc3)CC2)cc1` [Example 8, 5-{[1-(4-methoxyphenyl)cyclopropane-1-carbonyl](3-phenylpropyl)amino}pentanoic Acid]: the half-inhibitory concentration (IC50) came to 1830 nM and the Emax was 84%.
Regarding `COc1cc(C(=O)N(CCCCC(=O)O)CCCc2ccccc2)cc(OC)c1OC` [Example 10, 5-[(3-phenylpropyl)(3,4,5-trimethoxybenzoyl)amino]pentanoic Acid], it took 4840 nM to reach half-maximal inhibition (IC50) and the Emax turned out to be 70%.
In the case of `COc1cc(C(=O)N(CCCCC(=O)O)CCCc2ccccc2)cc(OC)c1Br` [Example 20, 5-[(4-bromo-3,5-dimethoxybenzoyl)(3-phenylpropyl)amino]pentanoic Acid], half-maximal inhibition (IC50) was put at 169 nM and the Emax came out at 89%.
In the case of `COc1cc(C(=O)N(CCCCC(=O)O)CCCc2ccccc2F)cc(OC)c1C` [Example 32, 5-{(3,5-dimethoxy-4-methylbenzoyl)[3-(2-fluorophenyl)propyl]amino}pentanoic Acid], half-maximal inhibition (IC50) required 473 nM and the Emax amounted to 89%.
With `COc1cc(C(=O)N(CCCCC(=O)O)CCCc2cccc(F)c2)cc(OC)c1C` [Example 33, 5-{(3,5-dimethoxy-4-methylbenzoyl)[3-(3-fluorophenyl)propyl]amino}pentanoic Acid], the half-maximal inhibitory concentration (IC50) turned out to be 215 nM and the Emax came out at 84%.
For `COc1cc(C(=O)N(CCCCC(=O)O)CCCc2ccc(F)cc2)cc(OC)c1C` [Example 34, 5-{(3,5-dimethoxy-4-methylbenzoyl)[3-(4-fluorophenyl)propyl]amino}pentanoic Acid] the same measures were 786 nM and 77%.
For the compound `COc1cc(C(=O)N(CCCCC(=O)O)CCCc2ccccc2)cc(OC)c1C1CC1` [Example 35, 5-[(4-cyclopropyl-3,5-dimethoxybenzoyl)(3-phenylpropyl)amino]pentanoic Acid], it took 107 nM to reach half-maximal inhibition (IC50) and the Emax came out at 92%.
In the case of `COc1cc(C(=O)N(CCCCC(=O)O)CCCc2ccccc2)cc(OC)c1C(F)(F)F` [Example 37, 5-{[3,5-dimethoxy-4-(trifluoromethyl)benzoyl](3-phenylpropyl)amino}pentanoic Acid], inhibition was half-maximal at 479 nM (IC50) and the Emax was found to be 81%.
For `COc1cc(C(=O)N(CCCCC(=O)O)CCCc2cccc(Cl)c2)cc(OC)c1C` [Example 38, 5-{[3-(3-chlorophenyl)propyl](3,5-dimethoxy-4-methylbenzoyl)amino}pentanoic Acid], the IC50 stood at 108 nM and the Emax was determined as 91%.
As for `COc1cc(C(=O)N(CCCc2ccccc2)CCSCC(=O)O)cc(OC)c1C` [Example 44, ({2-[(3,5-dimethoxy-4-methylbenzoyl)(3-phenylpropyl)amino]ethyl}sulfanyl)acetic Acid], the IC50 is 410 nM and the Emax was 91%.
With `COc1cc(C(=O)N(CCCc2ccccc2)CCOCP(=O)(O)O)cc(OC)c1C` [Example 50, ({2-[(3,5-dimethoxy-4-methylbenzoyl)(3-phenylpropyl)amino]ethoxy}methyl)phosphonic Acid], the IC50 came to 2 nM and the Emax is 98%.
Take `COc1cc(C(=O)N(CCCc2ccccc2)CCCC(C)(C)C(=O)O)cc(OC)c1C` [Example 57, 5-[(3,5-dimethoxy-4-methylbenzoyl)(3-phenylpropyl)amino]-2,2-dimethylpentanoic Acid]: the IC50 was 39 nM and the Emax amounted to 97%.
Consider `COc1cc(C(=O)N(CCCc2ccccc2)CCSCCC(=O)O)cc(OC)c1C` [Example 60, 3-({2-[(3,5-dimethoxy-4-methylbenzoyl)(3-phenylpropyl)amino]ethyl}sulfanyl)propanoic Acid], for which the IC50 is 1550 nM and the Emax amounted to 84%.
Take `COc1cc(C(=O)N(CCCc2ccccc2)CCSC(C)CC(=O)O)cc(OC)c1C` (stereo not drawn) [Example 62, 3-({2-[(3,5-dimethoxy-4-methylbenzoyl)(3-phenylpropyl)amino]ethyl}sulfanyl)butanoic Acid]: it took 184 nM to reach half-maximal inhibition (IC50) and the Emax stood at 94%.
As for `COc1cc(OC)cc(C(=O)N(CCCCC(=O)O)CCCc2cccc(Cl)c2)c1` [Example 91, 5-{[3-(3-chlorophenyl)propyl](3,5-dimethoxybenzoyl)amino}pentanoic Acid], 2090 nM corresponded to half-maximal inhibition (IC50) and the Emax was 84%.
For the compound `COc1cc(C(=O)N(CCCc2cccc(Cl)c2)CCOCC(=O)O)cc(OC)c1C` [Example 109, (2-{[3-(3-chlorophenyl)propyl](3,5-dimethoxy-4-methylbenzoyl)amino}ethoxy)acetic Acid], the midpoint of inhibition, the IC50, lay at 1550 nM and the Emax turned out to be 91%.
The like results for `COc1cc(C(=O)N(CCCc2ccccc2F)CCOCC(=O)O)cc(OC)c1C` [Example 110, (2-{(3,5-dimethoxy-4-methylbenzoyl)[3-(2-fluorophenyl)propyl]amino}ethoxy)acetic Acid] were, in that order, 1260 nM and 83%.
For `COc1cc(C(=O)N(CCCCC(=O)NS(C)(=O)=O)CCCc2ccccc2)cc(OC)c1C` [Example 111, N-{5-[(methanesulfonyl)amino]-5-oxopentyl}-3,5-dimethoxy-4-methyl-N-(3-phenylpropyl)benzamide] the same measures were 787 nM and 91%.
As for `COc1ccc(C2(C(=O)N(CCCc3ccccc3)CCSCC(=O)O)CC2)cc1` [Example 115, [(2-{[1-(4-methoxyphenyl)cyclopropane-1-carbonyl](3-phenylpropyl)amino}ethyl)sulfanyl]acetic Acid], the IC50 was 3540 nM and the Emax worked out at 67%.
The like results for `COc1cc(C(=O)N(CCCc2ccccc2F)CCSCC(=O)O)cc(OC)c1C` [Example 116, [(2-{(3,5-dimethoxy-4-methylbenzoyl)[3-(2-fluorophenyl)propyl]amino}ethyl)sulfanyl]acetic Acid] were, in that order, 173 nM and 85%.
`COc1cc(C(=O)N(CCCc2cccc(F)c2)CCSCC(=O)O)cc(OC)c1C` [Example 117, [(2-{(3,5-dimethoxy-4-methylbenzoyl)[3-(3-fluorophenyl)propyl]amino}ethyl)sulfanyl]acetic Acid]: the concentration for half-maximal inhibition (IC50) came to 180 nM and the Emax came out at 91%.
In the case of `COc1cc(C(=O)N(CCCc2cccc(Cl)c2)CCSCC(=O)O)cc(OC)c1C` [Example 122, [(2-{[3-(3-chlorophenyl)propyl](3,5-dimethoxy-4-methylbenzoyl)amino}ethyl)sulfanyl]acetic Acid], the IC50 came out at 419 nM and the Emax is 97%.
As for `COc1cc(C(=O)N(CCCc2cccc(F)c2)CCOCC(=O)O)cc(OC)c1C` [Example 129, (2-{(3,5-dimethoxy-4-methylbenzoyl)[3-(3-fluorophenyl)propyl]amino}ethoxy)acetic Acid], the midpoint of inhibition, the IC50, lay at 968 nM and the Emax was found to be 90%.
For the compound `COc1cc(C(=O)N(CCCc2ccccc2Cl)CCOCC(=O)O)cc(OC)c1C` [Example 131, (2-{[3-(2-chlorophenyl)propyl](3,5-dimethoxy-4-methylbenzoyl)amino}ethoxy)acetic Acid], the IC50 is 1730 nM and the Emax is 71%.
Take `COc1cc(C(=O)N(CCCc2ccc(C)o2)CCSCC(=O)O)cc(OC)c1C` [Example 132, [(2-{(3,5-dimethoxy-4-methylbenzoyl)[3-(5-methylfuran-2-yl)propyl]amino}ethyl)sulfanyl]acetic Acid]: half-maximal inhibition (IC50) required 783 nM and the Emax was determined as 80%.
For the compound `COc1cc(C(=O)N(CCCc2ccccc2)CCCC(C)(O)C(=O)O)cc(OC)c1C` (stereo not drawn) [Example 155, 5-[(3,5-dimethoxy-4-methylbenzoyl)(3-phenylpropyl)amino]-2-hydroxy-2-methylpentanoic Acid], the IC50 worked out at 763 nM and the Emax came to 81%.
As to `COc1cc(C(=O)N(CCCc2ccccc2)CCOCC(=O)NS(C)(=O)=O)cc(OC)c1C` [Example 157, N-(2-{2-[(methanesulfonyl)amino]-2-oxoethoxy}ethyl)-3,5-dimethoxy-4-methyl-N-(3-phenylpropyl)benzamide], the midpoint of inhibition, the IC50, lay at 460 nM and the Emax is 77%.
On to `COc1cc(C(=O)N(CCCCC(=O)O)CCCc2ccco2)cc(OC)c1C` [Example 173, 5-{(3,5-dimethoxy-4-methylbenzoyl)[3-(furan-2-yl)propyl]amino}pentanoic Acid], for which the IC50 was 4540 nM and the Emax turned out to be 64%.
Turning to `COc1cc(C(=O)N(CCCCC(=O)O)CCCc2ccc(Cl)o2)cc(OC)c1C` [Example 185, 5-{[3-(5-chlorofuran-2-yl)propyl](3,5-dimethoxy-4-methylbenzoyl)amino}pentanoic Acid], the half-inhibitory concentration (IC50) is 536 nM and the Emax came to 84%.
